Results published in patent US20250099420A1, “SMALL MOLECULE MODULATORS OF GPR139 COMPLEX” (University of Florida Research Foundation, Incorporated, priority 2022, published 2025).
Where two headings read alike, the source gives them in different places.

Assays:
parental HEK cells = experiment: HEK parental Agonist Counterscreen Assay (non-transfected cells); format: cell-based; settings: for Averaged Max % Response (±St. Dev.): activity relative to known control
Description: The high control for the agonist counterscreen was Forskolin not acetylcholine.

GPR139 = target: T1, GPR139 (Homo sapiens, UniProt Q6DWJ6); experiment: GPR139 Agonist titration / agonist counterscreen assay (calcium detection, HEK-GPR139 cells); format: cell-based; set-up: expressed in transfected cells; host or cells: HEK Aequorin cells, Maxcyte transient transfection; settings: GPR139 Agonist Activity; for Averaged Max % Response (±St. Dev.): activity relative to known control; for EC50: read-out: EC50
T1 sequence (Q6DWJ6 1-353): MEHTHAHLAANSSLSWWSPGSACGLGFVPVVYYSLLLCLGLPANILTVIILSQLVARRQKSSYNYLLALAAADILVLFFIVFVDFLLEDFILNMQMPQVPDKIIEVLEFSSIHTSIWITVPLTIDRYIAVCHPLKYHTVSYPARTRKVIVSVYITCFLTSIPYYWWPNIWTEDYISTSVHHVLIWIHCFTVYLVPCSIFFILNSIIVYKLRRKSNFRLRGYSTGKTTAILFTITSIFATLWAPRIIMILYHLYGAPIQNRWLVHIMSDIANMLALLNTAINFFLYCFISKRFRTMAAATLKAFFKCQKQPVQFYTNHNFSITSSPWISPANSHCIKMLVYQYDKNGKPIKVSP
Experimental: GPR activity was assessed using a calcium detection assay. […] Negative control samples were treated with DMSO. […] Intracellular calcium was measured using Calcium 5.

[1] = Homo sapiens, HEK293, HEK Agonist Activity section of Table 4 (parental HEK counterscreen)
[2] = values printed in E-notation without unit
[3] = HEK Agonist Activity section of Table 4 (parental HEK counterscreen)
[4] = Homo sapiens, HEK293, HEK Agonist Activity, parental non-transfected HEK cells

| Lipophilic Efficiency (logD) (parental HEK cells; HEK Agonist Activity section) | Lipophilic Efficiency (logP) (parental HEK cells; HEK Agonist Activity section) | Averaged Max % Response (±St. Dev.) (GPR139) | Lipophilic Efficiency (logD) (GPR139; based on logD) | Lipophilic Efficiency (logP) (GPR139; based on logP) | Hill Slope (GPR139; fitted dose-response curve) | Efficiency Ligand (GPR139; ligand efficiency) | EC50 (GPR139; [2]) | SMILES | Averaged Max % Response (±St. Dev.) (parental HEK cells; HEK Agonist Activity section) | EC50 (parental HEK cells; [1]) | EC50 (parental HEK cells; [3]) | further results |
| --- | --- | --- | --- | --- | --- | --- | --- | --- | --- | --- | --- | --- |
| 1.22 | 1.21 | 114.68 ± 22.09% | 3.62 | 3.61 | 0.44 | 0.32 | 56.1 nM | CC(CCc1ccccc1)NC(=O)c1ccc2c(c1)C(Cc1ccccc1)C(=O)C[S+]2[O-] (centres unmarked) [SR-01000129880] | 0.02 ± 5.29% | > 14100 nM | – | – |
| 2.66 | 2.66 | 119.47 ± 9.11% | 5.10 | 5.10 | 0.52 | 0.35 | 50.9 nM | COc1cc(C(C)=O)ccc1OCC(=O)OCC(=O)NCCCc1ccccc1 [SR-01000056458] | 19.25 ± 6.92% | > 14100 nM | – | – |
| 1.85 | 1.85 | 75.98 ± 6.44% | 3.98 | 3.98 | 0.79 | 0.36 | – | C=C(Nc1ccc(-c2cn[nH]c2)cc1)N(C)Cc1cccc(C(=O)CC)c1 [SR-00000007008] | −8.12 ± 2.24% | > 14100 nM | – | – |
| 2.46 | 2.46 | 124.32 ± 15.50% | 4.52 | 4.51 | 0.93 | 0.34 | – | CC1C(CC(=O)NCC(=O)CCC2=Cc3ccccc3C2)=Nc2ccccc21 (centres unmarked) [SR-01000068608] | 24.17 ± 25.98% | > 14300 nM | – | – |
| 3.35 | 3.35 | 177.62 ± 11.26% | – | – | – | – | – | Nc1ccc2c(C(F)(F)F)cc(=O)oc2c1 [SR-01000597171] | 92.06 ± 10.88% | – | 10700 nM | Hill Slope (parental HEK cells; HEK Agonist Activity section): 2.90; Efficiency Ligand (GPR139): 0.47; Lipophilic Efficiency (logD) (GPR139): 3.74; Lipophilic Efficiency (logP) (GPR139): 3.74; EC50 (GPR139; HEK-GPR139 cells): > 4400 nM |
| 1.27 | 1.27 | 79.59 ± 15.93% | – | – | – | – | – | COc1ccc2cc(C3(C)CC(=O)N(CC(=O)N(CC(C)C)CC(C)C)C3=O)ccc2c1 (centres unmarked) [SR-01000054961] | 6.24 ± 6.42% | > 14100 nM | – | Efficiency Ligand (GPR139): 0.26; Hill Slope (GPR139): 0.85; Lipophilic Efficiency (logD) (GPR139): 2.43; Lipophilic Efficiency (logP) (GPR139): 2.43 |
| 3.51 | 3.51 | 101.07 ± 20.22% | 5.28 | 5.28 | 0.87 | 0.33 | 228 nM | CC12C=CC3(CN(Cc4ccccc4)C(=O)C3C1C(=O)NCc1ccco1)O2 (centres unmarked) [SR-01000582958] | 10.03 ± 5.09% | – | > 13400 nM | – |
| – | – | 109.67 ± 8.84% | 4.91 | 4.91 | 0.80 | 0.40 | 9.7 nM | CC(NC(=O)CN1C(=O)c2cccc([N+](=O)[O-])c2C1=O)c1ccc(Cl)cc1Cl (centres unmarked) [SR-01000074712] | – | – | – | Lipophilic Efficiency (logD) (parental HEK cells; HEK Agonist Activity): 1.73; Lipophilic Efficiency (logP) (parental HEK cells; HEK Agonist Activity): 1.73; Averaged Max % Response (±St. Dev.) (parental HEK cells; HEK Agonist Activity): 30.27 ± 2.23%; EC50 (parental HEK cells; [4]): > 14700 nM |
| 1.58 | 1.58 | 92.90 ± 12.57% | 3.53 | 3.53 | 1.38 | 0.37 | 159 nM | O=C(CN1CCN(Cc2ccccc2Cl)C1=O)NC1CCCCCCC1 [SR-01000125462] | 6.02 ± 12.03% | – | > 14100 nM | – |
| 1.78 | 1.78 | 93.45 ± 21.44% | – | – | – | – | – | COc1cc(C(=O)NNC(=O)CCc2c[nH]c3ccccc23)ccc1OC(C)C [SR-01000068919] | 39.50 ± 8.66% | > 14200 nM | – | Efficiency Ligand (GPR139): 0.31; Hill Slope (GPR139): 0.88; Lipophilic Efficiency (logD) (GPR139): 3.27; Lipophilic Efficiency (logP) (GPR139): 3.27; EC50 (GPR139; HEK-GPR139 cells): 460 nM |
| 3.09 | 3.08 | 94.34 ± 21.26% | 5.44 | 5.43 | 0.66 | 0.36 | – | Cc1ccc(OCC(=O)NNC(=O)CN(C)S(=O)(=O)c2ccc(C)cc2)cc1 [SR-01000069435] | 14.76 ± 3.78% | > 14600 nM | – | – |
| – | – | 133.92 ± 16.41% | 3.47 | 3.47 | 0.09 | 0.37 | 19.6 nM | CC(C)C(CC(=O)Cc1cccc2ccccc12)C(=O)Nc1cccc(C#N)c1 (centres unmarked) [SR-05000022531] | – | – | – | Lipophilic Efficiency (logD) (parental HEK cells; HEK Agonist Activity): 0.61; Lipophilic Efficiency (logP) (parental HEK cells; HEK Agonist Activity): 0.61; Averaged Max % Response (±St. Dev.) (parental HEK cells; HEK Agonist Activity): 1.20 ± 11.04%; EC50 (parental HEK cells; [4]): > 14100 nM |
| – | – | 112.00 ± 16.24% | 6.04 | 6.04 | – | 0.47 | – | Cc1ccccc1CN1CCN(CC(=O)NCCc2ccc(Cl)cc2)C1=O [SR-01000093460] | – | – | – | Hill Slope (parental HEK cells; HEK Agonist Activity): 15.09; Lipophilic Efficiency (logD) (parental HEK cells; HEK Agonist Activity): 1.85; Lipophilic Efficiency (logP) (parental HEK cells; HEK Agonist Activity): 1.85; Averaged Max % Response (±St. Dev.) (parental HEK cells; HEK Agonist Activity): 109.44 ± 22.66%; EC50 (parental HEK cells; HEK Agonist Activity, parental non-transfected HEK cells): 11000 nM |
| 2.27 | 2.27 | 112.56 ± 16.12% | – | – | – | – | – | O=C(CN1CCCN(Cc2ccc(F)cc2Cl)C1=O)NC1CCCCC1 [SR-01000146448] | 10.11 ± 11.28% | – | > 14100 nM | Efficiency Ligand (GPR139): 0.35; Hill Slope (GPR139): 0.92; Lipophilic Efficiency (logD) (GPR139): 3.97; Lipophilic Efficiency (logP) (GPR139): 3.97; EC50 (GPR139; HEK-GPR139 cells): 281 nM |
| – | – | 99.72 ± 18.10% | 5.86 | 5.86 | 1.13 | 0.55 | 5 nM | O=C(Cn1ccc([N+](=O)[O-])n1)NCCc1ccc(Cl)cc1 [SR-01000299915] | – | – | – | Lipophilic Efficiency (logD) (parental HEK cells; HEK Agonist Activity): 2.40; Lipophilic Efficiency (logP) (parental HEK cells; HEK Agonist Activity): 2.40; Averaged Max % Response (±St. Dev.) (parental HEK cells; HEK Agonist Activity): 2.39 ± 2.18%; EC50 (parental HEK cells; [4]): > 14100 nM |
| 1.77 | 1.77 | 104.44 ± 8.42% | – | – | – | – | – | O=C(Cn1nnc2c1-c1ccccc1OC2)Nc1cccc(Cl)c1 [SR-01000135042] | 16.89 ± 7.08% | > 14100 nM | – | Efficiency Ligand (GPR139): 0.37; Hill Slope (GPR139): 0.33; Lipophilic Efficiency (logD) (GPR139): 3.32; Lipophilic Efficiency (logP) (GPR139): 3.32; EC50 (GPR139; HEK-GPR139 cells): 401 nM |
| 2.23 | 2.23 | 110.92 ± 4.82% | 4.10 | 4.10 | 0.58 | 0.39 | 189 nM | COc1ccc(CNC(=O)Nc2ccc(-c3cn[nH]c3)cc2)cc1.O=C(O)C(F)(F)F [SR-00000005347] | 11.55 ± 3.19% | – | > 14100 nM | – |
| – | – | 102.69 ± 7.41% | 4.95 | 4.94 | 0.31 | 0.44 | 7.9 nM | COc1ccccc1OCC(=O)NCCc1ccc2c(c1)CCCN2C [SR-01000911654] | – | – | – | Lipophilic Efficiency (logD) (parental HEK cells; HEK Agonist Activity): 1.69; Lipophilic Efficiency (logP) (parental HEK cells; HEK Agonist Activity): 1.69; Averaged Max % Response (±St. Dev.) (parental HEK cells; HEK Agonist Activity): −5.46 ± 4.05%; EC50 (parental HEK cells; [4]): > 14100 nM |
| – | – | 94.30 ± 8.24% | – | – | 1.08 | – | – | CN(C)CCOc1cc(-c2cn[nH]c2)ccc1NC(=O)C1COc2ccc(F)cc2C1.O=C(O)C(F)(F)F.O=C(O)C(F)(F)F (centres unmarked) [SR-00000004118] | 13.55 ± 13.03% | – | > 14100 nM | – |
